This is an account of results in patent publication US7491849B2, “Oligoamine compounds and derivatives thereof for cancer therapy” (priority 2001, dated 2009).

One data set has as its system DuPro. Kind of data set: MTT assay, tumor cell growth, DuPro. The data set is classed as cell-based. To be noted: 6 days incubation, read-out: ID50 (μM) values for Human Tumor Cell Lines, DuPro. The protocol:
(§1) Effect of Saturated Oligoamines on Human Prostate Tumor Cell Growth by the MTT assay. Saturated oligoamines inhibited prostate cancer cell growth in vitro. DU-145 cells were most sensitive and PC-3 cells were less sensitive to the effects of oligoamines. In general, ID50 values of less than 0.5 μM were obtained (Table 2). Even though the PC-3 cells were relatively more resistant to the oligoamines, at a 5 μM concentration the oligoamines reduced the cell number to less than 1% of the control on day 6 of incubation. Tissue cultures and the MTT assay were performed as follows.
(§2) Tissue Culture. Cells were seeded into 75 cm^2 culture flasks with 15 ml of Eagle's minimal essential medium supplemented with 10% fetal calf serum and nonessential amino acids. The flasks were incubated in a humidified 95% air/5% CO2 atmosphere. The cells were grown for at least 24 h to ensure that they are in the log phase of growth and then they were treated with the oligoamines. Cells were harvested by treatment for 5 min with STV (saline A, 0.05% trypsin, 0.02% EDTA) at 37° C. The flasks were rapped on the lab bench, pipetted several times and aliquots of cell suspension were withdrawn and counted using a Coulter particle counter that has been standardized for counting each cell line using a hemacytometer.
(§3) MTT Assay: Trypsinized cell suspensions were diluted to seed 80 μl suspensions containing 500 cells in each well of a 96 well Corning microtiter plate and incubated overnight at 37° C. in a humidified incubator in 5% CO2. 20 μl of appropriately diluted stock solution of each drug were added to the middle 8 columns of cell suspension in the microtiter plates. Each drug concentration was run in quadruplicate. Outer columns of the plates were used for buffer controls. Cells were incubated with the drug for 6 days at 37° C. in 5% CO2/H2O atmosphere. 25 μl of 5 mg/ml solution of 3-(4,5-dimethylthiazol-2-yl)-2,5-diphenyl tetrazolium bromide (MTT) were added to each well and incubated for 4 hours at 37° C. in 5% CO2/H2O incubator. Cells were lysed by incubating overnight with 100 μl lysis buffer (500 ml of the lysis buffer contains: 100 g lauryl sulfate (SDS), 250 ml of N,N-dimethylformamide, and 2 ml of glacial acetic acid, made up to volume with water; pH 4.8).
(§4) The color was monitored at room temperature at 570 nm in a E-max Precision Microplate Reader (Molecular Devices Corporation, Sunnyvale, Calif.) and data was analyzed using cell survival software supplied by Molecular Devices Corporation.

The next data set concerns PC-3 Cells. The data set is described as follows: Cellular polyamine and oligoamine levels, PC-3 cells (HPLC). It is filed as cell-based. The protocol:
(§5) Cellular Uptake of Oligoamines. There was considerable uptake of oligoamines by the cancer cell lines; see Table 3A (DuPro cells) and Table 3B (PC-3 cells). […] While not wishing to be limited by any particular theory of operation, the cytotoxicity is likely related to their strong aggregation effect on DNA.
(§6) Polyamine Analysis. An appropriate number of cells were taken from harvested samples and centrifuged at 1000 rpm at 4° C. for 5 min. The cells were washed twice with chilled Dulbecco's isotonic phosphate buffer (pH 7.4) by centrifugation at 1000 rpm at 4° C. and resuspended in the same buffer. After the final centrifugation, the supernatant was decanted, and […] of 8% sulfosalycilic acid was added to the cell pellet. The cells were sonicated, and the mixture was kept at 4° C. for at least 1 h. After centrifugation at 8000 g for 5 min, the supernatant was removed for analysis. An appropriate volume (50-100 μl) was fluorescence-labeled by derivatizing with dansyl chloride. Labeled polyamines were loaded onto a C-18 high-performance liquid chromatography column and separated by gradient elution with acetonitrile/water at 50° C. Peaks were detected and quantitated using Shimadzu HPLC fluorescence monitor coupled with a Spectra-Physics peak integrator. Because polyamine levels vary with environmental conditions, control cultures were sampled for each experiment.

The next data set relates to PC-3. The data set is described as follows: MTT assay, tumor cell growth, PC-3. It is filed as cell-based. To be noted: 6 days incubation, read-out: ID50 (μM) values for Human Tumor Cell Lines, PC-3. The protocol: as §1, §2, §3, §4
In general terms: Formazan colour is commonly taken as a measure of viable cells.

In the next data set the test system is DU145. Kind of data set: MTT assay, tumor cell growth, DU145. The data set is classed as cell-based. To be noted: 6 days incubation, read-out: ID50 (μM) values for Human Tumor Cell Lines, DU145. The protocol:
as §1, §2, §3, §4

A further data set concerns LnCap. The data set is described as follows: MTT assay, tumor cell growth, LnCap. The data set is classed as cell-based. To be noted: 6 days incubation, read-out: ID50 (μM) values for Human Tumor Cell Lines, LnCap. The protocol:
as §1, §2, §3, §4

A further data set relates to Calf-thymus DNA. The data set is described as follows: Calf-thymus DNA aggregation (absorbance at 320 nm). The data set is classed as biochemical. To be noted: 50 mM NaCl, 1 mM Na-cacodylate pH 7.0. On the procedure: Calf-thymus DNA aggregation by spermine and oligoamines.
Test for DNA Aggregation: DNA aggregation was studied using a Perkin-Elmer Lambda 25 UV/visible spectrophotometer connected to a PTP 6 heating unit using a previously published procedure (see Basu, H S and Marton, L J, “The interaction of spermine and pentamines with DNA,” Biochemical Journal 244:243-246 (1987)). Aggregation was determined in 50 mM NaCl, 1 mM Na-cacodylate pH 7.0 buffer by observing the increase in DNA absorbance (approximately 0.5 A260 units) at 320 nm.

The next data set deals with DuPro Cells. Kind of data set: Cellular polyamine and oligoamine levels, DuPro cells (HPLC). The data set is classed as cell-based. The protocol:
as §5, §6

[1] abbreviates: PC-3, Day 4 of Treatment, analog conc. 1 μM.
Setting [2] is: PC-3, Day 4 of Treatment, analog conc. 5 μM.
Setting [3] is: PC-3, Day 6 of Treatment, analog conc. 1 μM.
Where [4] appears, read: Day 4 of Treatment, analog conc. 0.8 μM.
Setting [5] is: Day 4 of Treatment, analog conc. 1.6 μM.
The mark [6] stands for this setting: Day 6 of Treatment, analog conc. 0.8 μM.

With `CCNCCCCNCCCCNCCCCNCCCCNCCCCNCCCCNCCCCNCC.Cl.Cl.Cl.Cl.Cl.Cl.Cl.Cl` [SL-11160], the IC50 amounted to 0.55 µM in the data set on DuPro, 0.4 µM with PC-3, 0.13 µM in the data set with DU145 and 0.15 µM with LnCap. Also, the “Polyamine levels, Analog (cellular oligoamine level)” value with PC-3 Cells (setting [1]) was determined as 0.005 nmoles/10^6 cells; in the data set with PC-3 Cells (setting [2]), 0.011 nmoles/10^6 cells; in the data set on PC-3 Cells (setting [3]), 0.007 nmoles/10^6 cells; in the data set on DuPro Cells (setting [4]) it was 0.575 nmoles/10^6 cells; with DuPro Cells (setting [5]), 0.775 nmoles/10^6 cells; in the data set with DuPro Cells (setting [6]), 0.410 nmoles/10^6 cells. Moreover, the “Polyamine levels, Spd” value in the data set on PC-3 Cells (setting [1]) came to 0.097 nmoles/10^6 cells; with PC-3 Cells (setting [2]) it was 0.077 nmoles/10^6 cells; in the data set with PC-3 Cells (setting [3]) it was 0.085 nmoles/10^6 cells; in the data set on DuPro Cells (setting [4]), 0.897 nmoles/10^6 cells; with DuPro Cells (setting [6]) it was 1.470 nmoles/10^6 cells. For the same compound, the “Polyamine levels, Spm” value in the data set on PC-3 Cells (setting [1]) is reported as 0.502 nmoles/10^6 cells; with PC-3 Cells (setting [2]), 0.525 nmoles/10^6 cells; in the data set with PC-3 Cells (setting [3]), 0.180 nmoles/10^6 cells; in the data set on DuPro Cells (setting [4]) it was 0.222 nmoles/10^6 cells; in the data set with DuPro Cells (setting [5]), 0.195 nmoles/10^6 cells; with DuPro Cells (setting [6]) it was 0.290 nmoles/10^6 cells. In addition, in the data set on Calf-thymus DNA, the “Conc. (μM) at the start of DNA Aggregation” value (“Conc. (μM) at the start” below) amounted to 4.5 µM. For the same compound, the “Polyamine levels, Put” value is 0.430 nmoles/10^6 cells with DuPro Cells (setting [4]), 0.412 nmoles/10^6 cells in the data set with DuPro Cells (setting [5]) and 0.675 nmoles/10^6 cells in the data set with DuPro Cells (setting [6]).

Consider `NCCCNCCCCNCCCN` [Spermine, reference compound], for which the “Conc. (μM) at the start” value in the data set on Calf-thymus DNA was determined as 88.5 µM.

As to `CCNCCCCNCCCCNCCCCNCCCCNCCCCNCCCCNCCCCNCCCCNCCCCNCCCCNCCCCNCCCCNCCCCNCC.Cl.Cl.Cl.Cl.Cl.Cl.Cl.Cl.Cl.Cl.Cl.Cl.Cl.Cl` [SL-11175], the IC50 turned out to be 0.35 µM with DuPro, 0.5 µM in the data set with PC-3, 0.24 µM in the data set on DU145 and 0.32 µM in the data set on LnCap. Besides, the “Polyamine levels, Analog (cellular oligoamine level)” value with PC-3 Cells (setting [1]) is recorded as 0.055 nmoles/10^6 cells; with PC-3 Cells (setting [2]), 0.128 nmoles/10^6 cells; with PC-3 Cells (setting [3]), 0.08 nmoles/10^6 cells; in the data set on DuPro Cells (setting [4]) it was 0.145 nmoles/10^6 cells; with DuPro Cells (setting [5]), 0.150 nmoles/10^6 cells; in the data set on DuPro Cells (setting [6]), 0.023 nmoles/10^6 cells. Also, the “Polyamine levels, Put” value in the data set on PC-3 Cells (setting [1]) was 0.515 nmoles/10^6 cells; in the data set with PC-3 Cells (setting [2]) it was 0.519 nmoles/10^6 cells; in the data set with PC-3 Cells (setting [3]) it was 0.76 nmoles/10^6 cells; with DuPro Cells (setting [4]), 0.157 nmoles/10^6 cells; in the data set on DuPro Cells (setting [5]), 0.410 nmoles/10^6 cells; in the data set on DuPro Cells (setting [6]), 0.155 nmoles/10^6 cells. Moreover, the “Conc. (μM) at the start” value in the data set on Calf-thymus DNA amounted to 2.0 µM. The “Polyamine levels, Spm” value in the data set on DuPro Cells (setting [4]) is reported as 0.050 nmoles/10^6 cells.
